Experimental data reported in PMC8580996, “2-Oxoglutarate derivatives can selectively enhance or inhibit the activity of human oxygenases” (Nature Communications, 2021).
Several values for one entry are separate records, joined by “and”; a condition that tells them apart may be missing. Equal values may be shown once.

Legend:
[1] = target: T1, FIH (Homo sapiens, UniProt Q9NWT6); experiment: Competition assay in a single reaction vessel, FIH-catalyzed hydroxylation (SPE-MS); assay type: biochemical
T1 sequence (Q9NWT6 whole entry): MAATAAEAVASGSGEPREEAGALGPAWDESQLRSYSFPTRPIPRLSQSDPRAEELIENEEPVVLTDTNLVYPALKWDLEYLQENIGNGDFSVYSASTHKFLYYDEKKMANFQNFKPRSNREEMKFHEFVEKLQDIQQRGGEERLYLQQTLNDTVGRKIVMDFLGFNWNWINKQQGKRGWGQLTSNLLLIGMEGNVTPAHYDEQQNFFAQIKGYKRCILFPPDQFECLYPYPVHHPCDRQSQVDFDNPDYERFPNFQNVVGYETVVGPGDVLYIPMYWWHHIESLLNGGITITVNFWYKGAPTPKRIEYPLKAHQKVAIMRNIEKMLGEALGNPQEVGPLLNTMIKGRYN
Experimental: Mean of three independent runs (n = 3; mean ± SD). […] Cosubstrates: a 20 μM 2OG; b 20 μM 2OG; c 20 μM 1; d 20 μM 12; e 20 μM 12 and 100 μM 2OG; f 100 μM 14. Source data are provided as a Source Data file.
Mean of three independent runs (n = 3; mean ± SD). […] Source data are provided as a Source Data file.
Peptide turnover was monitored by SPE-MS using the same instrument configuration (with the exception that the peptides were eluted from the SPE cartridge with 0.1%v/v aqueous formic acid in 80/20 v/v acetonitrile/water) as described above.
FIH and AspH-catalyzed peptide hydroxylations were analyzed simultaneously using SPE-MS as described in the
Methods section; competition experiments were performed in the same reaction vessel using equimolar 2OG
oxygenase and substrate concentrations. […]
Source data are provided as a Source Data file.
FIH and AspH-catalyzed peptide hydroxylations were analyzed simultaneously using SPE-
MS as described in the Methods section; competition experiments were performed in the same reaction vessel
using equimolar 2OG oxygenase and substrate concentrations. […]
2OG, 100 μM 14. Source data are provided as a Source Data file.

[2] = target: T1, FIH; experiment: 1H NMR assay of FIH-catalyzed oxidative decarboxylation of cosubstrate, with SPE-MS of final mixture; assay type: biochemical; conditions: 5 μM FIH, 150 μM CA1-20, 150 μM cosubstrate
Experimental: Supplementary Figure 2. […] FIH- […]
catalyzed oxidative decarboxylation of 2OG was monitored using a Bruker AVIII 700 NMR machine equipped with a 5 mm 1H(13C/15N) inverse cryoprobe; spectra were analyzed using the Bruker TopSpin 3.6.1 software.
50 μM ammonium iron(II) sulfate hexahydrate (FAS, (NH4)2Fe(SO4)2·6H2O) in 50 mM aqueous Tris-d11 containing 10% v/v D2O (pH 7.5, 25° C). The ratio of the CA 1-20 peptide and the hydroxylated CA 1-20(Ox) peptide, which is the product of the F IH-catalyzed hydroxylation reaction, was determined using SPE-MS after NMR […]
(a) Close-up (3.0-2.2 ppm) of the 1H NMR spectrum of commercial 2OG in 50 mM aqueous Tris-d11 containing 10%v/v D2O (pH 7.5, 25° C); (b) Close-up (3.0-2.2 ppm) of the 1H NMR spectrum of commercial succinate in 50 […]
FIH-catalyzed oxidative decarboxylation of 3-methyl-2OG (1) was monitored using a Bruker AVIII 700 NMR machine equipped with a 5 mm 1H(13C/15N) inverse cryoprobe; spectra were analyzed using the […]
Bruker TopSpin 3.6.1 software. […]
in 50 mM aqueous Tris -d11 containing 10% v/v D2O (pH 7.5, 25° C). The ratio of the CA 1-20 peptide and the hydroxylated CA 1-20(Ox) peptide, which is the product of the FIH -catalyzed hydroxylation reaction, was […]
(a) Close -up (3.4 -0.9 ppm) of the 1H NMR spectrum of synthetic 1 in 50 mM aqueous Tris-d11 containing 10% v/v D2O (pH 7.5, 2 5° C); ( b) Close -up (3.4 -0.9 ppm) of the 1H NMR spectrum of commercial 2 -methylsuccinate ( 36) […]
FIH-catalyzed oxidative decarboxylation of 4-methyl-2OG (12) was monitored using a Bruker AVIII 700 NMR machine equipped with a 5 mm 1H(13C/15N) inverse cryoprobe; spectra were analyzed using the Bruker TopSpin 3.6.1 software.
(NH4)2Fe(SO4)2·6H2O) in 50 mM aqueous Tris-d11 containing 10% v/v D2O (pH 7.5, 25° C). The ratio of the CA 1-20 peptide and the hydroxylated CA 1-20(Ox) peptide, which is the product of the FI H-catalyzed hydroxylation […]
(a) Close -up (3.3 -0.9 ppm) of the 1H NMR spectrum of synthetic 12 in 50 mM aqueous Tris-d11 containing 10% v/v D2O (pH 7.5, 25° C); ( b) Close -up (3.4 -0.9 ppm) of the 1H NMR spectrum of commercial 2 -methylsuccinate ( 36)

- substrate hydroxylation (% conversion) ([1]; Fig 2a, 20 μM 2OG, CA1-20, 0 min): 14.1515 and 16.7791 and 11.5447
- substrate hydroxylation (% conversion) ([1]; Fig 2a, 20 μM 2OG, CA1-20, 0.703167 min): 47.9481 and 47.8258 and 38.5441
- substrate hydroxylation (% conversion) ([1]; Fig 2a, 20 μM 2OG, CA1-20, 2.10933 min): 78.9866 and 77.8293 and 70.1307
- substrate hydroxylation (% conversion) ([1]; Fig 2a, 20 μM 2OG, CA1-20, 2.8135 min): 85.5974 and 84.4447 and 78.5645
- substrate hydroxylation (% conversion) ([1]; Fig 2a, 20 μM 2OG, CA1-20, 3.51633 min): 89.6698 and 89.0396 and 84.1833
- substrate hydroxylation (% conversion) ([1]; Fig 2a, 20 μM 2OG, CA1-20, 4.22 min): 92.631 and 91.777 and 88.07
- substrate hydroxylation (% conversion) ([1]; Fig 2a, 20 μM 2OG, CA1-20, 4.92317 min): 94.369 and 93.7454 and 90.6935
- substrate hydroxylation (% conversion) ([1]; Fig 2a, 20 μM 2OG, CA1-20, 5.62833 min): 95.7579 and 95.0911 and 92.7125
- substrate hydroxylation (% conversion) ([1]; Fig 2a, 20 μM 2OG, CA1-20, 6.33133 min): 97.057 and 96.0828 and 94.1188
- substrate hydroxylation (% conversion) ([1]; Fig 2a, 20 μM 2OG, CA1-20, 7.03583 min): 97.7828 and 96.6689 and 95.1866
- substrate hydroxylation (% conversion) ([1]; Fig 2a, 20 μM 2OG, CA1-20, 7.73917 min): 98.8257 and 97.1902 and 95.7428
- substrate hydroxylation (% conversion) ([1]; Fig 2a, 20 μM 2OG, CA1-20, 8.444 min): 99.4037 and 97.3768 and 96.3319
- substrate hydroxylation (% conversion) ([1]; Fig 2a, 20 μM 2OG, CA1-20, 9.1485 min): 99.7225 and 97.4249 and 96.6951
- substrate hydroxylation (% conversion) ([1]; Fig 2a, 20 μM 2OG, CA1-20, 9.853 min): 99.5637 and 97.3528 and 97.1366
- substrate hydroxylation (% conversion) ([1]; Fig 2a, 20 μM 2OG, CA1-20, 10.558 min): 100 and 97.2891 and 96.8671
- substrate hydroxylation (% conversion) ([1]; Fig 2a, 20 μM 2OG, CA1-20, 11.2623 min): 100 and 94.1661
- substrate hydroxylation (% conversion) ([1]; Fig 2a, 20 μM 2OG, HIF-1a788-822, 0.703167 min): 6.1581 and 8.558 and 6.1761
- substrate hydroxylation (% conversion) ([1]; Fig 2a, 20 μM 2OG, HIF-1a788-822, 2.10933 min): 16.8685 and 19.2149 and 14.7272
- substrate hydroxylation (% conversion) ([1]; Fig 2a, 20 μM 2OG, HIF-1a788-822, 2.8135 min): 22.0351 and 24.2966 and 18.9489
- substrate hydroxylation (% conversion) ([1]; Fig 2a, 20 μM 2OG, HIF-1a788-822, 3.51633 min): 26.9176 and 28.8009 and 23.0891
- substrate hydroxylation (% conversion) ([1]; Fig 2a, 20 μM 2OG, HIF-1a788-822, 4.22 min): 30.085 and 33.3713 and 26.7919
- substrate hydroxylation (% conversion) ([1]; Fig 2a, 20 μM 2OG, HIF-1a788-822, 4.92317 min): 34.7093 and 37.5052 and 30.4684
- substrate hydroxylation (% conversion) ([1]; Fig 2a, 20 μM 2OG, HIF-1a788-822, 5.62833 min): 37.941 and 41.581 and 34.0768
- substrate hydroxylation (% conversion) ([1]; Fig 2a, 20 μM 2OG, HIF-1a788-822, 6.33133 min): 40.9748 and 45.5421 and 37.689
- substrate hydroxylation (% conversion) ([1]; Fig 2a, 20 μM 2OG, HIF-1a788-822, 7.03583 min): 44.2421 and 48.7776 and 41.0727
- substrate hydroxylation (% conversion) ([1]; Fig 2a, 20 μM 2OG, HIF-1a788-822, 7.73917 min): 46.5287 and 52.1147 and 44.2887
- substrate hydroxylation (% conversion) ([1]; Fig 2a, 20 μM 2OG, HIF-1a788-822, 8.444 min): 50.2071 and 55.1688 and 46.8395
- substrate hydroxylation (% conversion) ([1]; Fig 2a, 20 μM 2OG, HIF-1a788-822, 9.1485 min): 52.5573 and 57.8623 and 50.003
- substrate hydroxylation (% conversion) ([1]; Fig 2a, 20 μM 2OG, HIF-1a788-822, 9.853 min): 55.5664 and 60.5077 and 52.8227
- substrate hydroxylation (% conversion) ([1]; Fig 2a, 20 μM 2OG, HIF-1a788-822, 10.558 min): 57.4116 and 62.9095 and 55.0617
- substrate hydroxylation (% conversion) ([1]; Fig 2a, 20 μM 2OG, HIF-1a788-822, 11.2623 min): 59.0832 and 64.3072 and 56.3348
- conversion of CA1–20 ([1]; Fig 2a, 20 μM 2OG, both FIH substrates in one vessel, after 5 min): > 90%
- conversion of HIF-1α788–822 ([1]; Fig 2a, 20 μM 2OG, both FIH substrates in one vessel, after 12 min): ~ 60%
- substrate hydroxylation (% conversion) ([1]; Fig 2b, 20 μM 2OG, FIH, 1.19933 min): 58.5759 and 53.8983
- FIH-catalyzed CA1–20 hydroxylation ([1]; Fig 2b, 20 μM 2OG, after 4 min): > 80%
- FIH-catalyzed substrate turnover ([1]; Fig 4a, 0.5 mM 2OG, absence of 13, after 4 min): ~ 80%
- hydroxylation of CA1-20 peptide in final reaction mixture (SPE-MS) ([2]; t = 10 min): > 95%
- FIH-catalyzed conversion of cosubstrate to succinate / 2-methylsuccinate (1H NMR) ([2]; within 5 min): ~ 70%
SMILES: O=C(O)CCC(=O)C(=O)O [2OG, 2-Oxoglutarate]
